Data reported in PubChem BioAssay (NCI).
“And” between values parts separate entries of the source, which are not always exact repeats. Identical values can stand only once.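 Exposure lasted 48 hours, with cells grown in 96-well plates and compounds tested at five concentrations. Here, GI50 denotes the concentration required for 50% inhibition of growth. TGI: concentration producing complete growth inhibition.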

Experiments:
Assay in all cases: NCI tumour cell line growth inhibition, 48 h
NCI-H226 lung = system: NCI-H226 lung
SR leukemia = system: SR leukemia
SK-MEL-28 melanoma = system: SK-MEL-28 melanoma
SK-MEL-2 melanoma = system: SK-MEL-2 melanoma
A498 renal = system: A498 renal
OVCAR-5 ovarian = system: OVCAR-5 ovarian
M14 melanoma = system: M14 melanoma
ACHN renal = system: ACHN renal
OVCAR-4 ovarian = system: OVCAR-4 ovarian
SF-539 CNS = system: SF-539 CNS
MOLT-4 leukemia = system: MOLT-4 leukemia
MCF7 breast = system: MCF7 breast
BT-549 breast = system: BT-549 breast
DU-145 prostate = system: DU-145 prostate
HS 578T breast = system: HS 578T breast

Row | Compound | TGI (NCI-H226 lung) | TGI (SR leukemia) | TGI (SK-MEL-28 melanoma) | TGI (SK-MEL-2 melanoma) | TGI (A498 renal) | TGI (OVCAR-5 ovarian) | TGI (M14 melanoma) | TGI (ACHN renal) | TGI (OVCAR-4 ovarian) | TGI (SF-539 CNS) | TGI (MOLT-4 leukemia) | TGI (MCF7 breast) [µM] | TGI (BT-549 breast) [µM] | TGI (DU-145 prostate) | TGI (HS 578T breast) | GI50 (NCI-H226 lung) [µM] | GI50 (BT-549 breast) [µM] | GI50 (SR leukemia) | GI50 (MCF7 breast) [µM] | GI50 (OVCAR-5 ovarian)
1 | OCC1O[C@H](O[C@@H]2CCCN3CC(O)C(O)[C@@H]23)C(O)C(O)C1O (stereo partly specified) | > 100 µM | > 100 µM | > 100 µM | > 100 µM | > 100 µM | > 100 µM | > 100 µM | > 100 µM | > 100 µM | > 100 µM | > 100 µM | – | – | – | – | – | – | – | – | –
2 | Nc1nc(Nc2ccc(Cl)c(Cl)c2)nc2nc[nH]c12 | 50.2 µM | 33.2 µM | – | 39.2 µM | 21.7 µM | 75.3 µM | 29.8 µM | 25.2 µM | 48.4 µM | 26.7 µM | 39.2 µM | 45.6 | 25.8 | 21.6 µM | 20.2 µM | – | – | – | – | –
3 | N#C/C(=C\c1ccncc1)c1csc2ccccc12 | > 77.1 µM | – | > 100 µM | 42.2 µM | 66.6 µM | > 89.6 µM | – | – | > 100 µM | 48.9 µM | 43.1 µM | > 96.7 | – | – | – | – | – | – | – | –
4 | CN(C)CCNc1ccc2ncn3c4ccccc4c(=O)c1c23 | 6.05 µM | > 100 µM | 15.2 µM | 10.1 µM | 21.1 µM | 5.35 µM | 13.7 µM | 10.5 µM | 5 µM | 16.9 µM | > 100 µM | – | – | – | – | – | – | – | – | –
5 | CCCCCC(=O)N[C@@H](c1ccco1)[C@@H](O)C(=O)O[C@H]1C[C@@]2(O)[C@@H](OC(=O)c3ccccc3)[C@@H]3[C@]4(OC(C)=O)CO[C@@H]4C[C@H](O)[C@@]3(C)C(=O)[C@H](OC(C)=O)C(=C1C)C2(C)C | – | > 25 µM | – | – | – | – | – | > 25 µM | > 25 µM | – | – | > 25 | – | 0.0101 µM | 0.0309 µM and 0.025 µM | 0.00133 | 0.00109 | – | – | –
6 | O=C(Nc1ccc([N+](=O)[O-])cc1)Nn1cnnc1 | 2.31 µM | > 100 µM | > 100 µM | > 100 µM | > 100 µM | > 100 µM | > 100 µM | > 100 µM | 43.2 µM | 73.9 µM | > 100 µM | > 100 | 69.7 | > 100 µM | 93.2 µM | – | – | – | – | –
7 | O=C1OC(c2ccccc2)=NC1c1ccccc1 (stereo unspecified) | > 100 µM | > 100 µM | > 100 µM | – | > 100 µM | > 100 µM | > 100 µM | > 100 µM | > 100 µM | > 100 µM | > 100 µM | > 100 | > 100 | > 100 µM | > 100 µM | – | – | – | – | –
8 | C[N+](C)(CCCCCC[N+](C)(C)CCCN1C(=O)c2cccc3cccc(c23)C1=O)CCCN1C(=O)c2cccc3cccc(c23)C1=O | – | > 100 µM | > 100 µM | > 100 µM | > 100 µM | > 100 µM | – | > 100 µM | > 100 µM | > 100 µM | > 100 µM | > 100 | > 100 | > 100 µM | > 100 µM | – | – | – | – | –
9 | O=C1C(Cl)N(c2c(Cl)cccc2Cl)C1c1c[nH]c2ccccc12 (stereo unspecified) | – | > 100 µM | > 100 µM | > 100 µM | – | > 100 µM | > 100 µM | – | > 100 µM | > 100 µM | > 100 µM | – | – | – | – | – | – | – | – | –
10 | CCNC(=O)C(C)C1CCC2(C)C=CC(=O)C(C)=C2C1O (stereo unspecified) | > 100 µM | – | > 100 µM | > 100 µM | > 100 µM | > 100 µM | – | – | > 100 µM | > 100 µM | > 100 µM | > 100 | – | – | – | – | – | – | – | –
11 | CC(C)=CCCC(C)(OC1OC(CO)C(O)C(O)C1O)C1CCC2(C)C1C(O)CC1C3(C)CCC(O)C(C)(C)C3C(OC3OC(CO)C(O)C(O)C3OC3OC(C)C(O)C(O)C3O)CC12C (stereo unspecified) (tested in a mixture with another compound) | > 75 µM | > 75 µM | > 75 µM | > 75 µM | > 75 µM | > 75 µM | > 75 µM | > 75 µM | > 75 µM | > 75 µM | > 75 µM | > 75 | > 75 | > 75 µM | > 75 µM | – | – | – | – | –
12 | O=NN1C(c2ccccc2)CNC(=O)CC1c1ccccc1 (stereo unspecified) | > 100 µM | – | > 100 µM | > 80 µM | > 100 µM | > 100 µM | – | – | > 100 µM | 96.1 µM | > 93 µM | > 100 | – | – | – | – | – | – | – | –
13 | FC(F)(F)c1ccc2c(c1)N(CCCNCCN1CCOCC1)c1ccccc1S2 | – | 21.8 µM | 17.3 µM | 13.9 µM | 34.9 µM | 23.4 µM | 4.13 µM | 24.7 µM | – | 16.9 µM | 20.1 µM | – | – | – | – | – | – | – | – | –
14 | Cc1c(O)c(=O)ccn1CCN | > 100 µM | – | > 100 µM | > 100 µM | > 100 µM | > 100 µM | > 100 µM | > 100 µM | > 100 µM | – | > 100 µM | – | – | – | – | – | – | – | – | –
15 | CC(CSC(=N)N)C(N)=O (stereo unspecified) | > 100 µM | > 100 µM | > 100 µM | > 100 µM | > 100 µM | > 100 µM | > 100 µM | > 100 µM | > 100 µM | – | – | > 100 | > 100 | > 100 µM | > 100 µM | – | – | – | – | –
16 | S=c1sc2c(s1)SC(c1ccccc1)CS2 (stereo unspecified) | > 100 µM | – | > 100 µM | > 100 µM | > 100 µM | > 100 µM | – | – | > 88.2 µM | > 100 µM | > 100 µM | > 100 | – | – | – | – | – | – | – | –
17 | COc1ccccc1/C=C(/C)[N+](=O)[O-] | 4.22 µM and 3.64 µM | 1.61 µM and 5.08 µM | 5.64 µM and 4.97 µM | 5.01 µM and 4.64 µM | 21.5 µM and 18.4 µM | 13.4 µM and 27.3 µM | 25.6 µM and 2.78 µM | 4.68 µM and 5.46 µM | 23.6 µM and 14.8 µM | 6.6 µM and 3.71 µM | 0.598 µM and 1.5 µM | > 100 | – | 3.12 µM and 2.36 µM | 29.3 µM and 26.9 µM | – | – | 0.237 µM and 1.5 µM | 0.593 | 2.89 µM and 6.42 µM
18 | Brc1ccc(C2C3CSc4ccccc4C3=NN2c2ccccc2)cc1 (stereo unspecified) | > 100 µM | > 100 µM | > 100 µM | > 100 µM | > 100 µM | – | > 100 µM | – | 91.7 µM | > 100 µM | > 100 µM | > 100 | > 100 | > 100 µM | > 100 µM | – | – | – | – | –
19 | O=C(NN1C(=O)C(Cl)C1c1ccccc1O)c1ccccc1O (stereo unspecified) | – | > 100 µM | > 100 µM | > 100 µM | – | – | > 100 µM | – | > 100 µM | 48.7 µM | > 100 µM | – | – | – | – | – | – | – | – | –
20 | COc1cc(OC2OC(CO)C(O)C(O)C2O)c2c(O)c3c(=O)cc(C)oc3cc2c1 (stereo unspecified) | > 100 µM | – | > 100 µM | > 100 µM | > 100 µM | > 100 µM | > 100 µM | > 100 µM | > 100 µM | > 100 µM | > 100 µM | > 100 | > 100 | > 100 µM | > 100 µM | – | – | – | – | –
21 | Cc1ccc(/C=C2\Sc3scc(-c4ccccc4)[n+]3C2=O)cc1 | > 100 µM | 26.4 µM | > 100 µM | > 89.1 µM | – | > 100 µM | > 94.9 µM | 51.7 µM | > 81.1 µM | > 60.6 µM | > 72.6 µM | > 100 | 50.9 | > 65.9 µM | 37.5 µM | – | – | – | – | –
22 | OCC#CCNCl | > 100 µM | – | > 100 µM | > 100 µM | > 100 µM | > 100 µM | – | – | > 100 µM | > 100 µM | > 100 µM | > 100 | – | – | – | – | – | – | – | –
23 | CC(C)(O)/C1=C/C=C/CCCCCCCCCC1 | > 100 µM | > 100 µM | > 100 µM | > 100 µM | > 100 µM | > 100 µM | > 100 µM | > 100 µM | – | – | > 100 µM | > 100 | > 100 | > 100 µM | 7.78 µM | – | – | – | – | –
24 | O=[N+]([O-])C(=C/c1ccccc1)/C(=C\c1ccccc1)[N+](=O)[O-] | 47.3 µM | – | 31.2 µM | 49.1 µM | – | 46.6 µM | 41.6 µM | 30.6 µM | 38.1 µM | 12.7 µM | 19.5 µM | 34.4 | 31.4 | 29.7 µM | 77.1 µM | – | – | – | – | –
